Patent US10759767B2 (priority 2012, dated 2020)
Like-named read-outs stand apart in the source and are kept apart here.

Experiments:
Phytophthora infestans = experiment: microbe, parasite or virus in culture; assay type: cell-based; details: Phytophthora infestans, 168 h, read-out: Observed efficacy
Pyricularia oryzae = experiment: microbe, parasite or virus in culture; assay type: cell-based
Alternaria solani = experiment: Microtest: activity against early blight caused by Alternaria solani (Alteso); assay type: cell-based; details: Alternaria solani, 168 h, read-out: Observed efficacy
Leptosphaeria nodorum = experiment: Microtest: activity against wheat leaf spots caused by Leptosphaeria nodorum (Leptno); assay type: cell-based; details: Parastagonospora nodorum, 168 h, read-out: Observed efficacy
Septoria tritici = experiment: Microtest: activity against leaf blotch on wheat caused by Septoria tritici (Septtr); assay type: cell-based; details: solo product
Botrytis cinerea = experiment: Microtest: activity against the grey mold Botrytis cinerea (Botrci); assay type: cell-based; details: Botrytis cinerea, 168 h, read-out: Observed efficacy
[1] = Pyricularia oryzae, 168 h, read-out: Observed efficacy

Work on `CC(C)C(O)(Cn1cncn1)c1ccc(Oc2ccc(Cl)cc2)cc1C(F)(F)F` (centres unmarked) [I-5, 2-[4-(4-chlorophenoxy)-2-(trifluoromethyl)phenyl]-3-methyl-1-(1,2,4-triazol-1-yl)butan-2-ol] yielded an inhibition of growth at 16 ppm (Phytophthora infestans) of 2%, an inhibition of growth at 63 ppm (Phytophthora infestans) of 45% and an inhibition of growth at 0.001 ppm (Pyricularia oryzae; [1]) of 5%. For the same molecule, the inhibition of growth at 0.004 ppm (Pyricularia oryzae; [1]) was 0%, the inhibition of growth at 0.016 ppm (Pyricularia oryzae; [1]) was 0% and the inhibition of growth at 1 ppm (Pyricularia oryzae; [1]) was 67%. For the same molecule, the inhibition of growth at 4e-06 ppm (Alternaria solani; solo 0.000004 ppm) was 8%, the inhibition of growth at 0.004 ppm (Alternaria solani; solo 0.004 ppm) was 11% and the inhibition of growth at 0.016 ppm (Alternaria solani; solo 0.016 ppm) was 10%. The inhibition of growth at […] (Alternaria solani; solo 0.063 ppm) was 14%, the inhibition of growth at 1 ppm (Alternaria solani; solo 1 ppm) was 49% and the inhibition of growth at […] (Leptosphaeria nodorum; solo 0.25 ppm) was 19%. For the same molecule, the inhibition of growth at 0.001 ppm (Leptosphaeria nodorum; solo product, 0.001 ppm) was 9%, the inhibition of growth at […] (Leptosphaeria nodorum; solo product, 0.063 ppm) was 20% and the inhibition of growth at 2.5e-07 ppm (Septoria tritici; Zymoseptoria tritici, 168 h, second Septtr microtest, 0.00000025 ppm, read-out: Observed efficacy) was 5%. It also gave an inhibition of growth at 1e-06 ppm (Septoria tritici; Zymoseptoria tritici, 168 h, second Septtr microtest, 0.000001 ppm, read-out: Observed efficacy) of 10%, an inhibition of growth at 1.6e-05 ppm (Septoria tritici; Zymoseptoria tritici, 168 h, 0.000016 ppm, read-out: Observed efficacy) of 13% and an Observed efficacy (Septoria tritici; second Septtr microtest, 0.000016 ppm) of 13%. It also gave an inhibition of growth at […] (Botrytis cinerea; solo 0.063 ppm) of 14%, an inhibition of growth at […] (Botrytis cinerea; solo 0.25 ppm) of 27% and a melting point of 114 °C.
For `CC#CC(O)(Cn1cncn1)c1ccc(Oc2ccc(Cl)cc2)cc1Cl` (centres unmarked) [I-1, 2-[2-chloro-4-(4-chlorophenoxyl)phenyl]-1-(1,2,4-triazol-1-yl)pent-3-yn-2-ol], the inhibition of growth at 16 ppm (Phytophthora infestans) was 0%, the inhibition of growth at 0.001 ppm (Pyricularia oryzae; [1]) was 3% and the inhibition of growth at 0.016 ppm (Pyricularia oryzae; [1]) was 0%. For the same molecule, the Observed efficacy (Pyricularia oryzae; solo product, 0.016 ppm) was 0%, the inhibition of growth at […] (Alternaria solani; solo 0.00025 ppm) was 4% and the inhibition of growth at 0.001 ppm (Alternaria solani; solo 0.001 ppm) was 10%. For the same molecule, the inhibition of growth at […] (Leptosphaeria nodorum; solo 0.063 ppm) was 19%, the inhibition of growth at 6.3e-05 ppm (Leptosphaeria nodorum; solo product, 0.000063 ppm) was 12% and the inhibition of growth at 4e-06 ppm (Septoria tritici; Zymoseptoria tritici, 168 h, second Septtr microtest, 0.000004 ppm, read-out: Observed efficacy) was 11%. The inhibition of growth at […] (Septoria tritici; Zymoseptoria tritici, 168 h, second Septtr microtest, 0.00063 ppm, read-out: Observed efficacy) was 17%, the inhibition of growth at 6.3e-05 ppm (Septoria tritici; Zymoseptoria tritici, 168 h, 0.000063 ppm, read-out: Observed efficacy) was 17% and the inhibition of growth at 1e-06 ppm (Botrytis cinerea; solo 0.000001 ppm) was 4%. The inhibition of growth at 4e-06 ppm (Botrytis cinerea; solo 0.000004 ppm) was 0%, the inhibition of growth at 1.6e-05 ppm (Botrytis cinerea; solo 0.000016 ppm) was 1% and the inhibition of growth at 6.3e-05 ppm (Botrytis cinerea; solo 0.000063 ppm) was 0%. The inhibition of growth at […] (Botrytis cinerea; solo 0.063 ppm) was 16% and the melting point was 137 °C.
